Measured values published in patent US10688200B2, “Urea-based prostate specific membrane antigen (PSMA) inhibitors for imaging and therapy” (Five Eleven Pharma Inc., priority 2015, dated 2020).
Values belong to the compound of their own block, whether it stands above or below them.

Experiments:
PSMA [1] = target: T1, PSMA (Homo sapiens, UniProt Q04609); test: In vitro competitive binding assay to determine IC50 to PSMA; conditions: LNCaP cells, [125I]MIP-1095 radioligand, 37° C. 1 h, mean±SD (n=4); read-out: PSMA binding affinities of cold ligands, IC50
T1 construct: 100 μL of freshly harvested PSMA cells; endogenous in cells; host or cells: 'PSMA cells' in the method
T1 sequence (Q04609 whole entry): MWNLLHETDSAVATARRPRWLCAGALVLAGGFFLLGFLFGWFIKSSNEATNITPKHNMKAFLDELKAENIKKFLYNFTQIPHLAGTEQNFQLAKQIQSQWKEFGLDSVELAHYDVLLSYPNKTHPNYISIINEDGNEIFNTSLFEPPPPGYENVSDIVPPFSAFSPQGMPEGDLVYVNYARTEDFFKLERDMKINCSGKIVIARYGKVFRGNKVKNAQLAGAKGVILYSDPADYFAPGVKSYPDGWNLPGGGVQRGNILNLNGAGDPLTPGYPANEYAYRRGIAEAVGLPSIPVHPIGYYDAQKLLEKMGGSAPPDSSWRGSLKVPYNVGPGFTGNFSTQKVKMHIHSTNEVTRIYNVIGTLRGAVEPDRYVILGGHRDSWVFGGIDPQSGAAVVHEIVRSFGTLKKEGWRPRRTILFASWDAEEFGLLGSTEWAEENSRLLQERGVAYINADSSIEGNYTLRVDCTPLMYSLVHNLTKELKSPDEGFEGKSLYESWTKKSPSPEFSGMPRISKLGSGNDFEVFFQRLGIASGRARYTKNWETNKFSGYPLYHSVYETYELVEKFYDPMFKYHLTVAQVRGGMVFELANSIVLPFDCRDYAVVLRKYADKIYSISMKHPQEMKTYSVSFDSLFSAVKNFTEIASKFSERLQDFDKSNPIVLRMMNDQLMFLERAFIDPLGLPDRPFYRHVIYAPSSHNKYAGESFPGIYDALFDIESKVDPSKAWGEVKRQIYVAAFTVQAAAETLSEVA
Procedure: In Vitro Competitive Binding Assay to Determine IC50 to PSMA
In order to determine the binding affinity, in vitro competitive binding assays were performed. The LNCaP cells were incubated with 150,000 cpm of [^125I]MIP-1095 in the presence of 10 different concentrations of competing drugs. After incubation at 37° C. for 1 h, the bound and free radioactivity were separated by vacuum filtration through GF/B filter paper using a Brandel M-24R cell harvester followed by washing twice. Non-specific binding was defined with 10 μM PMPA. The cell bound radioactivity was measured with a gamma counter, 2470 Wizard^2 (Perkin-Elmer, IL). The IC50 values were calculated by fitting the data using a nonlinear regression algorithm (GraphPad Software).
The PSMA binding affinities were determined in a competitive binding assay using LNCaP human prostate carcinoma cells and the known high affinity PSMA ligand, [^125I]MIP-1095 as the radioligand. Data are expressed as mean±SD (n=4).

PSMA [2] = target: T1, PSMA; test: In vitro binding signals of 68Ga labeled ligands in LNCaP tumor homogenates; conditions: Ga-68 radiolabeled ligands; for Total binding (TB): 37° C. 60 min; for Nonspecific binding (NSB): with 1a (PSMA11) 10 μM
[3] = system: PSMA-expressing LNCaP cells; test: Cell binding and internalization; assay type: cell-based, human; conditions: 37° C.
Procedure: The cellular uptake and internalization kinetics of the [^68Ga]1a, [^68Ga]5a and [^68Ga]5b were determined using PSMA-expressing LNCaP cells. Furthermore, to be able to discriminate between total cellular activity (sum of membrane-associated and internalized activity) and internalized activity, all incubations were followed by a washing step with mild acid at 4° C. to remove specifically cell-surface bound radioligand by displacement.
LNCaP cells (in 6-well plates in triplicates) were incubated in RPMI-1640 medium with [^68Ga]1a, [^68Ga]5a or [^68Ga]5b for 0-2 h at 37° C. At the indicated time, the medium was removed and the cells were washed twice and then incubated with a mild acid buffer (50 mM glycine, 150 mM NaCl, pH 3.0) at 4° C. for 5 min. The supernatant (containing cell surface-bound radioactivity) was pooled and the cell pellet (containing internalized radioactivity) was collected with filter paper and then radioactivity in supernatant and cell pellet was counted on a gamma counter.
LNCaP cells were incubated with [^68Ga]1a, [^68Ga]5a and [^68Ga]5b for up to 2 h at 37° C. to determine whether the compound is internalized by endocytosis. The cells were then washed with a mild acid buffer to remove extracellularly bound compound.
Non specific binding (NSB) was evaluated by blocking with 20 μM PMPA. Specificity of cell uptake (SB) was calculated by subtracting the respective signals resulting from PMPA blocking. Values are expressed as % of applied radioactivity bound to 10^6 cells.

[4] = system: LNCaP tumor bearing nude mice; test: Biodistribution of [68Ga]labeled ligand in PSMA positive tumor bearing nude mice; assay type: in vivo, mouse; conditions: 1 h post-injection, i.v., n = 3
Procedure: In a dish contained 5×10^6 cells of LNCaP in 50% Matrigel (Becton Dickinson, Heidelberg, Germany) were subcutaneously inoculated into the left shoulder of male 5- to 6-week-old CD-1 nu/nu mice (Charles River Laboratories). The tumors were allowed to grow for 8 weeks until approximately 0.5 cm^3 in size.
The ^68Ga-radiolabeled compounds were injected via tail vein (25 μCi per mouse; 0.1-0.2 nmol). At 1 h after injection, the animals were sacrificed. Organs of interest were dissected and weighed. The radioactivity was measured with a gamma counter and calculated as % ID/g.

Compound: O=C(O)CCc1ccc(O)c(CN(CCN(CC(=O)O)Cc2cc(CCC(=O)NCCCCCC(=O)NCCCC[C@H](NC(=O)N[C@@H](CCC(=O)O)C(=O)O)C(=O)O)ccc2O)CC(=O)O)c1 [Compound 1a, Glu-NH—CO—NH-Lys(Ahx)-HBED-CC, reference compound]
IC50 (PSMA [1]): 16.6 ± 2.4 nM | Specific binding (SB) SB = TB − NSB (PSMA [2]): 12.3 | Total binding (TB) (PSMA [2]): 13.5 | Nonspecific binding (NSB) (PSMA [2]): 1.2

Compound: O=C(O)CC[C@H](NC(=O)N[C@@H](CCCCNC(=O)CCCCCNC(=O)CCc1ccc(O)c(CN(CCN(CC(=O)O)Cc2cc(CCC(=O)N[C@H]3C(O)O[C@H](CO)[C@@H](O)[C@@H]3O)ccc2O)CC(=O)O)c1)C(=O)O)C(=O)O (stereo partly drawn) [Compound 1b, (3S,7S)-22-(3-(((Carboxymethyl)(2-((carboxymethyl)(2-hydroxy-5-(3-oxo-3-(((3R,4R,5S,6R)-2,4,5-trihydroxy-6-(hydroxymethyl)tetrahydro-2H-pyran-3-yl)amino)propyl)benzyl)amino)ethyl)amino)methyl)-4-hydroxyphenyl)-5,13,20-trioxo-4,6,12,19-tetraazadocosane-1,3,7-tricarboxylic acid]
IC50 (PSMA [1]): 53.3 ± 30.9 nM | Specific binding (SB) SB = TB − NSB (PSMA [2]): 8.8 | Total binding (TB) (PSMA [2]): 10.8 | Nonspecific binding (NSB) (PSMA [2]): 2.0

Compound: O=C(O)CC[C@H](NC(=O)N[C@@H](CCCCNC(=O)CCCCCNC(=O)CCc1ccc(O)c(CN(CCN(CC(=O)O)Cc2cc(CCC(=O)NCC(=O)O)ccc2O)CC(=O)O)c1)C(=O)O)C(=O)O [Compound 1c, (3S,7S)-22-(3-(((Carboxymethyl)(2-((carboxymethyl)(5-(3-((carboxymethyl)amino)-3-oxopropyl)-2-hydroxybenzyl)amino)ethyl)amino)methyl)-4-hydroxyphenyl)-5,13,20-trioxo-4,6,12,19-tetraazadocosane-1,3,7-tricarboxylic acid]
IC50 (PSMA [1]): 25.6 ± 9.4 nM | Specific binding (SB) SB = TB − NSB (PSMA [2]): 11.8 | Total binding (TB) (PSMA [2]): 13.4 | Nonspecific binding (NSB) (PSMA [2]): 1.6

Compound: C[C@H](NC(=O)CCc1ccc(O)c(CN(CCN(CC(=O)O)Cc2cc(CCC(=O)NCCCCCC(=O)NCCCC[C@H](NC(=O)N[C@@H](CCC(=O)O)C(=O)O)C(=O)O)ccc2O)CC(=O)O)c1)C(=O)O [Compound 1d, (3S,7S)-22-(3-(((2-((5-(3-(((S)-1-Carboxyethyl)amino)-3-oxopropyl)-2-hydroxybenzyl)(carboxymethyl)amino)ethyl)(carboxymethyl)amino)methyl)-4-hydroxyphenyl)-5,13,20-trioxo-4,6,12,19-tetraazadocosane-1,3,7-tricarboxylic acid]
IC50 (PSMA [1]): 26.8 ± 6.3 nM | Specific binding (SB) SB = TB − NSB (PSMA [2]): 11.2 | Total binding (TB) (PSMA [2]): 12.6 | Nonspecific binding (NSB) (PSMA [2]): 1.4

Compound: O=C(O)CC[C@H](NC(=O)N[C@@H](CCCCNC(=O)CCCCCNC(=O)CCc1ccc(O)c(CN(CCN(CC(=O)O)Cc2cc(CCC(=O)N[C@@H](CC(=O)O)C(=O)O)ccc2O)CC(=O)O)c1)C(=O)O)C(=O)O [Compound 1e, (3S,7S)-22-(3-(((Carboxymethyl)(2-((carboxymethyl)(5-(3-(((S)-1,2-dicarboxyethyl)amino)-3-oxopropyl)-2-hydroxybenzyl)amino)ethyl)amino)methyl)-4-hydroxyphenyl)-5,13,20-trioxo-4,6,12,19-tetraazadocosane-1,3,7-tricarboxylic acid]
IC50 (PSMA [1]): 29.5 ± 11 nM | Specific binding (SB) SB = TB − NSB (PSMA [2]): 13.2 | Total binding (TB) (PSMA [2]): 14.8 | Nonspecific binding (NSB) (PSMA [2]): 1.6

Compound: O=C(O)CC[C@H](NC(=O)CCc1ccc(O)c(CN(CCN(CC(=O)O)Cc2cc(CCC(=O)NCCCCCC(=O)NCCCC[C@H](NC(=O)N[C@@H](CCC(=O)O)C(=O)O)C(=O)O)ccc2O)CC(=O)O)c1)C(=O)O [Compound 1f, (3S,7S)-22-(3-(((Carboxymethyl)(2-((carboxymethyl)(5-(3-(((S)-1,3-dicarboxypropyl)amino)-3-oxopropyl)-2-hydroxybenzyl)amino)ethyl)amino)methyl)-4-hydroxyphenyl)-5,13,20-trioxo-4,6,12,19-tetraazadocosane-1,3,7-tricarboxylic acid]
IC50 (PSMA [1]): 37.2 ± 18.6 nM | Specific binding (SB) SB = TB − NSB (PSMA [2]): 12.0 | Total binding (TB) (PSMA [2]): 13.5 | Nonspecific binding (NSB) (PSMA [2]): 1.5

IC50 (PSMA [1]): 5 ± 1.9 nM
Compound: O=C(O)CC[C@H](NC(=O)N[C@@H](CCCCNC(=O)[C@H](Cc1ccccc1)NC(=O)COc1ccc(C[C@H](NC(=O)CNC(=O)c2cccc(I)c2)C(=O)O)cc1)C(=O)O)C(=O)O [Compound 5c, (4S,11S,15S)-4-Benzyl-1-(4-((S)-2-carboxy-2-(2-(3-iodobenzamido)acetamido)ethyl)phenoxy)-2,5,13-trioxo-3,6,12,14-tetraazaheptadecane-11,15,17-tricarboxylic acid]

IC50 (PSMA [1]): 5.3 ± 2.2 nM
Compound: O=C(O)CC[C@H](NC(=O)N[C@@H](CCCCNC(=O)[C@H](Cc1ccccc1)NC(=O)COc1ccc(C[C@H](NC(=O)CNC(=O)c2ccccc2I)C(=O)O)cc1)C(=O)O)C(=O)O [Compound 5d, (4S,11S,15S)-4-Benzyl-1-(4-((S)-2-carboxy-2-(2-(2-iodobenzamido)acetamido)ethyl)phenoxy)-2,5,13-trioxo-3,6,12,14-tetraazaheptadecane-11,15,17-tricarboxylic acid]

IC50 (PSMA [1]): 6 ± 1.8 nM
Compound: O=C(O)CC[C@H](NC(=O)N[C@@H](CCCCNC(=O)[C@H](Cc1ccccc1)NC(=O)COc1ccc(C[C@H](NC(=O)CNC(=O)c2ccc(F)nc2)C(=O)O)cc1)C(=O)O)C(=O)O [Compound 5e]

IC50 (PSMA [1]): 4.6 ± 1.4 nM
Compound: O=C(O)CC[C@H](NC(=O)N[C@@H](CCCCNC(=O)Nc1ccc(I)cc1)C(=O)O)C(=O)O [MIP-1095, reference compound]

Organ distribution: Blood [4]: 0.36 ± 0.05 % dose/g | Organ distribution: Bone [4]: 0.11 ± 0.04 % dose/g | Organ distribution: Brain [4]: 0.03 ± 0.01 % dose/g | Organ distribution: Heart [4]: 0.19 ± 0.04 % dose/g | Organ distribution: Liver [4]: 0.36 ± 0.10 % dose/g | Organ distribution: Lung [4]: 0.46 ± 0.13 % dose/g | Organ distribution: Muscle [4]: 0.21 ± 0.15 % dose/g | Organ distribution: Pancreas [4]: 0.20 ± 0.05 % dose/g | Organ distribution: Skin [4]: 0.33 ± 0.17 % dose/g | Organ distribution: Spleen [4]: 0.70 ± 0.38 % dose/g
Compound: O=C(O)CC[C@H](NC(=O)N[C@@H](CCCCNC(=O)[C@H](Cc1ccccc1)NC(=O)COc1ccc(C[C@H](NC(=O)CNC(=O)C[N+]23CC[N+]45CC[N+]6(CC(=O)O)CC[N+]7(CC2)CC(=O)[O][68Ga-3]6347[O]C(=O)C5)C(=O)O)cc1)C(=O)O)C(=O)O (stereo partly drawn) [[^68Ga]5a]
Cell surface binding activity ([3]; 5 min): 1.67 ± 0.24 % ID/10^6 cells | Internalized activity ([3]; 5 min): 0.21 ± 0.04 % ID/10^6 cells | Cell surface binding activity ([3]; 15 min): 1.92 ± 0.24 % ID/10^6 cells | Internalized activity ([3]; 15 min): 1.14 ± 0.21 % ID/10^6 cells | Cell surface binding activity ([3]; 30 min): 1.96 ± 0.27 % ID/10^6 cells | Internalized activity ([3]; 30 min): 2.55 ± 0.42 % ID/10^6 cells | Cell surface binding activity ([3]; 60 min): 1.89 ± 0.13 % ID/10^6 cells | Internalized activity ([3]; 60 min): 3.70 ± 0.44 % ID/10^6 cells | Cell surface binding activity ([3]; 90 min): 2.33 ± 0.01 % ID/10^6 cells | Internalized activity ([3]; 90 min): 5.40 ± 0.13 % ID/10^6 cells | Cell surface binding activity ([3]; 120 min): 2.03 ± 0.23 % ID/10^6 cells | Internalized activity ([3]; 120 min): 5.43 ± 1.20 % ID/10^6 cells

IC50 (PSMA [1]): 16.5 ± 3.1 nM
Compound: O=C(O)CCc1ccc2c(c1)C[N+]13CC[N+]45CC(=O)[O][Ga-3]14([O]C(=O)C3)([O]2)[O]c1ccc(CCC(=O)NCC(=O)N[C@@H](Cc2ccc(OCC(=O)N[C@@H](Cc3ccccc3)C(=O)NCCCC[C@H](NC(=O)N[C@@H](CCC(=O)O)C(=O)O)C(=O)O)cc2)C(=O)O)cc1C5 (stereo partly drawn) [[^natGa]5b]
